Earlier results in US12403113B2, “Composition containing creatine fatty ester for use in medicine” (COMMISSARIAT À L'ÉNERGIE ATOMIQUE ET AUX ÉNERGIES …, priority 2019, dated 2025).

Key:
DMD patients = details: 5 g of creatine/day for 8 weeks, oral
CTD patients = details: pure creatine
[1] = system: Huntington's disease patients; details: 8 g/day for 16 weeks, 64 patients
CrT−/y mice = details: 0.02 mg/g body/weight/day for 5 days, intracerebroventricular; preliminary

SMILES | muscle Phosphocreatine/Inorganic Phosphate ratio (DMD patients) | muscle strength in short term (DMD patients) | tolerability (DMD patients; 18 patients vs placebo) | improvement in CTD patients (CTD patients) | serum 8-hydroxy-2′-deoxyguanosine (marker of oxidative DNA damage) [1] | health and longevity (mice) | performance in the object recognition task (CrT−/y mice)
CN(CC(=O)O)C(=N)N [creatine, 2-1(methylguanidino) acetic acid] | significantly improved | preserved | well tolerated | does not lead to any improvement | marked decrease | improves health and longevity | 
CCCCCCCCCCCCOC(=O)CN(C)C(=N)N [DCE, dodecyl creatine ester] |  |  |  |  |  |  | significantly improves
